# A melting point compilation (Tetko et al.; mined from patent text by program, amines drawn as free bases though some values may be those of a salt)
row,Structure (SMILES),melting point [°C]
1,O=C(OCCCCCCCCCCCCCCCCOc1ccc(-c2cccc(F)c2F)cc1)C(CCCCCCO)CCCCCCO,45.2 to 48.8
2,CCOC(=O)c1ncn2c1CN=C(c1ccccc1F)c1cc(Cl)ccc1-2,195 to 196
3,NS(=O)(=O)c1ccccc1S(=O)(=O)N1CCC1,121 to 123
4,O=C1C(=O)c2ccccc2C2=C1SCC1(CCN(C(=O)c3ccoc3)CC1)O2,234 to 235
5,CC(C)COc1ccc(C=CC(=O)O)cc1,161 to 164
6,CCc1ncc([N+](=O)[O-])n1CCS(=O)(=O)CC,130 to 140
7,O=C(OCc1ccccc1)N1CCN(c2ccc(-c3ccnc(Cl)n3)cn2)CC1,145 to 147
8,C#CCNC(=O)Oc1cc(-n2c(=O)cc(C(F)(F)F)n(C)c2=O)c(F)cc1Cl,144 to 146
9,Nc1cc(C(F)(F)F)cc2nc3c4ccccc4c4ccccc4c3nc12,194 to 195
10,O=Cc1cc2ccccc2nc1I,150 to 152
11,COC(=O)c1cc(Cl)cnc1NCc1ccccc1,77 to 79
12,CC(C)(C)C(=O)O[C@H]1[C@H](N2CCCC2)c2cc(C#N)ccc2OC1(C)C (relative stereo),109 to 110
13,O=C1CCCC(S(=O)(=O)c2ccccc2)C1 (stereo unspecified),83 to 85
14,Cc1ccc(OC(=O)C=Cc2ccc([N+](=O)[O-])cc2)cc1,168 to 170
15,O=C1CN=C(c2ccccc2F)c2ccccc2N1,181 to 182
16,CC(C)N(CCN1C(=O)/C(=N/NC(=O)Nc2ccccc2)c2ccccc21)C(C)C,157 to 159
17,Cc1ccsc1C=C(O)C(=O)O,184 to 185
18,CCn1c(C)nc2cc(CN3CCN(C(c4ccccc4)c4ccccc4)CC3)ccc21,153
19,Clc1nc2cc(Cl)c(Cl)cc2[nH]1,212 to 214
20,Cc1cccc(C)c1N1CC(C)N(c2c(C)cccc2C)C1=NC(=O)Oc1ccccc1 (stereo unspecified),165 to 166
21,Cc1c(C)c2c(c(C)c1NC(=O)OCC(Cl)(Cl)Cl)C(c1ccc(C(C)C)cc1)CO2 (stereo unspecified),137 to 140
22,O=c1oc(-c2ccccc2)cc(O)c1SCC1CCCCC1,141 to 143
23,COC(=O)c1ccc(Cl)cc1N(C)S(C)(=O)=O,73 to 75
24,COC(=O)c1nc(-c2ccc(Cl)c(OC)c2F)c(F)c(N)c1SC,113 to 117
25,CNC(=O)C(C(F)F)C(C)(C)C=NO (stereo unspecified),53 to 58
26,COc1cc(OC)nc(Oc2cccc(Cl)c2C(=O)ON(C)C)n1,80 to 81

row,Structure (SMILES),melting point [°C]
1,COc1cccc([C@H]2O[C@H](CC#N)C(=O)N(CC(C)(C)C)c3ccc(Cl)cc32)c1OC,193 to 194
2,CC(=O)N1CCc2cc(CC(C)Br)cc(C#N)c21 (stereo unspecified),115 to 117
3,CCOc1cc(Cl)ccc1Cn1nc(OC(C)C)cc1CCCOc1c(CC(=O)O)cccc1OC,98 to 99
4,O=C(Nc1cccc(Cl)c1)c1ccccc1CN1C(=O)C2(COc3cc4c(cc32)CCO4)c2ccccc21 (stereo unspecified),> 230
5,Cc1nc(CC#N)c2c(OCc3ccccc3)cccn12,118 to 119
6,CC1(C)N=C(S)N=C(NC(=O)c2ccccc2)N1,176 to 178
7,CCOC(=O)c1cc(-c2csc(-c3ccnc(N(C)C)c3)n2)c(=O)[nH]c1C(C)C,> 230
8,OCc1cncn1C1CCCCC1,133 to 134
9,COc1ccc2c3c(c(=O)oc2c1)CN(CCN1CC2CCCC(C2)C1)CC3,102 to 103
10,Nc1cc(=O)n(Cc2cc(Cl)cc(Cl)c2)[nH]1,175 to 176
11,COc1ccccc1Oc1c(Cl)nc(N2CCOCC2)nc1NS(=O)(=O)c1ccc(C(C)C)cn1,168 to 176
12,N#Cc1c(O)nc2ccc(Cl)cc2c1O,275 to 277
13,CN1CCN(C(=O)OC(C)(C)C)CC1C(N)=O (stereo unspecified),137 to 138
14,CS(=O)(=O)OCC(O)(CC(Cl)(Cl)Cl)c1cc(Cl)cc(Cl)c1 (stereo unspecified),99 to 104
15,COc1ccc(N2CCN(c3c(C)c(C)c4c(c3C)C(O)(c3ccc(C(F)(F)F)cc3)C(C)(C)O4)CC2)cc1 (stereo unspecified),181 to 183
16,FC(F)Sc1nc2ncccc2s1,41 to 43
17,Nc1c(OC[C@@H]2CO2)cccc1[N+](=O)[O-],107 to 109
18,Nc1nc2c(ncn2C(c2ccccc2)(c2ccccc2)c2ccccc2)c(=O)[nH]1,268 to 270
19,CCC1Sc2cc(Br)ccc2NC1=O (stereo unspecified),100
20,Cn1nc(-c2cnc(N)nc2-c2ccc(Cl)c(Cl)c2)ccc1=O,238
21,C[Si](C)(C)C(N)Cc1ccccc1 (stereo unspecified),67 to 68
22,Cc1cc(Cc2ccccc2)nc(Nc2ccc(-n3cnc(C)n3)c(F)c2)n1,183 to 185
23,CS(=O)(=O)c1ccc(C(CC2CCCC2)C(=O)Nc2nc3ccccc3[nH]2)cc1C#N (stereo unspecified),148 to 152
24,N#CCc1ccc(N)c(Cl)c1,77
25,CCOC(=O)NC1(c2ccccc2Cl)CCCCC1=O (stereo unspecified),112 to 114
26,CNC(=NC#N)NCc1c(C)cc(C)c(CNC(=NC#N)NC)c1C,270 to 272

row,Structure (SMILES),melting point [°C]
1,CCOc1cc2ncc3c(N)nc(-c4cccnc4)cc3c2cc1OCC,241 to 245
2,CCc1ccc(C(=O)Nc2ccccc2O)cc1,103 to 105
3,CC(C)(C)[Si](C)(C)O[C@@H]1[C@H](O)C[C@]2(O[Si](C)(C)C(C)(C)C)C[C@H]1OC2=O,107 to 108
4,O=C(Nc1ccc2nc(S)[nH]c2c1)C(=O)N1CCC(Cc2ccccc2)CC1,277 to 281
5,CCOC(=O)c1[nH]c2ccc(C(O)(C(F)(F)F)C(F)(F)F)cc2c1-c1ccccc1,185 to 193
6,N#CN1CCC(=C2c3ccccc3Sc3cccnc32)CC1,192 to 193
7,CCOC(=O)c1nc(O)sc1C(=O)CBr,105 to 108
8,CC(=O)OCC(=O)NNC(=O)c1ccc2occ(-c3cccc(OC(F)(F)F)c3)c2c1,161 to 162
9,C=C(C)n1c(=O)n(CC2CN(Cc3ccccc3)CCO2)c2ccccc21 (stereo unspecified),117
10,CSc1nn2c(N)cc(C)nc2c1S(=O)(=O)c1ccc(C)cc1,> 230
11,"CCCN(CCC)C1Cc2c(-c3ncco3)ccc3c2C(C1)CN3C(=O)c1ccccc1 (single isomer, unassigned; (-))",103 to 104
12,CC(C)COC(=O)C1(c2onc(-c3ccc(O)cc3)c2-c2ccccc2)CC1,109 to 110
13,c1ccc(-c2ccc(Nc3nc4ccccc4o3)cc2)cc1,213 to 214
14,O=C(O)COc1ccc2cc(-c3sc4ccccc4c3C(=O)Cc3ccccc3)ccc2c1Br,170 to 172
15,Cc1cccc(C2=C(c3ccc(S(C)(=O)=O)cc3)CC(CN(C)C)C2O)c1 (stereo unspecified),165 to 167
16,CC(C)(C)OC(=O)NC1CCc2ccccc2C(F)C1=O (stereo unspecified),127 to 129
17,CC(C)(C)C(=O)N[C@H]1CC[C@H](CCN2CCN(c3nccc4c3OCC4)CC2)CC1,194
18,CC(=O)CCC(=O)c1ccccc1,31
19,Cc1c(Oc2ncc(C(F)(F)F)cc2Cl)nn(C(=O)NC(C)C)c1C,78 to 80
20,COc1nc(O)nc(C)c1Cl,235
21,O=[N+]([O-])C1NC=CN1c1cccnc1 (stereo unspecified),261
22,COc1ccc2c(c1)C=C(C(O)C(F)(F)F)CC2 (stereo unspecified),66 to 68
23,Cn1c(-c2ccc(O)c(F)c2)cc2ncccc2c1=O,182 to 184
24,CC(C)C1=NC(c2ccccc2)=NC(c2ccc(F)cc2)C1=CO (stereo unspecified),183 to 184
25,CCOC(CNc1nc2ccccc2[nH]1)OCC,117 to 121
26,CCC(CC)Cn1nc(-c2ccc(O)cc2O)c2cccc(C(F)(F)F)c21,89 to 90

row,Structure (SMILES),melting point [°C]
1,C=CCN(C#N)c1c(Cl)ccc2nsnc12,62 to 63
2,CSC(=S)N1CCN(CC2=C(C)C(=O)C(C)=C(C)C2=O)CC1,133 to 135
3,C=CC(=O)NCc1ccc(CCCl)cc1,145 to 147
4,CC(C)c1ccc(S(=O)(=O)c2ccccc2)cc1S(=O)(=O)NC1CCN(C(=O)c2ccccc2)CC1,225
5,COc1cccc(C(O)CCN2CC=C(c3ccc(Cl)cc3)CC2)c1 (stereo unspecified),100 to 102
6,O=S1(=O)c2cccc3cccc(c23)N1CCN1CCC(Cc2c[nH]c3ccc(F)cc23)CC1,161
7,COc1cc(N)c(Cl)cc1C(=O)NC1CCN2CCCC2C1 (stereo unspecified),193 to 194
8,CCc1nc2c(N)nc3ccccc3c2n1CC(C)(C)OCCS(C)(=O)=O,206 to 209
9,Fc1ccc2c(c1)C(=C1CCNCC1)c1ncccc1CC2,78 to 81
10,N#Cc1cnn2c1NCC=C2c1cc(Cl)ccc1Cl,222 to 223
11,Cc1cc(C)c(N2CCCc3c2nn(C)c3N)c(Cl)c1,234 to 236
12,CCCc1nnc2c(=O)n(C)c3ccc(OC)cc3n12,219 to 220
13,COC(=O)c1cccc(C2C(C(=O)c3ccc(OC)cc3)=C(O)C(=O)N2c2nnc(C)s2)c1 (stereo unspecified),218
14,CC(C)n1cc(C(=O)C(F)(F)F)c2ccc([N+](=O)[O-])cc21,143 to 145
15,Nc1noc2cc3c(cc12)C1(CO3)C(=O)N(Cc2ccccc2C(F)(F)F)c2ccccc21 (stereo unspecified),262 to 264
16,O=c1[nH]c(=Cc2cccs2)c(=O)[nH]c1=Cc1ccc2ccccc2n1,288 to 289
17,CC(C)(C)NC(=O)[C@@H]1C[C@H](Cl)CN1C(=O)[C@@H](O)[C@@H](N)Cc1ccccc1,126 to 130
18,CCS(=O)(=O)CCC(=O)NNC(=O)N1Cc2cc(OC)ccc2Oc2ccc(Cl)cc21,173 to 175
19,Cc1cccc(NC(=O)NCC(=O)N(c2ccccc2)C(C(=O)OC(C)(C)C)c2ccc(Cl)c(Cl)c2)c1 (racemic),176
20,Nc1ccc(O)c(N)c1,78
21,CN1CCN(c2cc(Cl)cc3c2c(=O)n(CC2CCCCC2)c(=O)n3Cc2ccccc2)CC1,163 to 169
22,Cc1nc2cc(-c3ccc(C=C4SC(=O)NC4=O)cn3)cc(C34CC5CC(CC(C5)C3)C4)c2o1,> 360
23,O=S(=O)(Oc1cccc(OCCC(c2ccccc2)(c2ccccc2)c2ccccc2)c1)c1ccccc1,124 to 125
